Here are results for 23 compounds from patent US10954214B2 (Janssen Pharmaceutica NV, priority 2016, dated 2021).

Assay [1] concerns the target full-length MALT1 protein (Strep-MALT1(1-824)-His) (Homo sapiens (Human), UniProt Q9UDY8). The assay can be described thus: MALT1 Biochemical Protease Assay (Ac-LRSR-AMC substrate). Particulars: 10 nM FL MALT1, 200 μM Ac-LRSR-AMC, 4 h at RT; read-out: MALT1_Biochemical activity (Ac-LRSR-amc) IC50. The method in brief:
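Fluorescence from AMC release off the quenched LRSR substrate was read after a 4 h reaction at RT. Values were normalised to no-enzyme and uninhibited controls and fitted for IC50 and Hill coefficient.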

Assay [2] deals with IL10 secretion by OCI-LY3 ABC-DLBCL cells. As to the kind of experiment: Human IL10 Mesoscale assay (OCI-LY3). In kind it is cell-based. As to conditions: Homo sapiens, 24 h. The method in brief: (§1)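 100,000 cells/well treated with compound in 9 twofold steps from 15 μM to 58.6 nM (0.3% DMSO) for 24 h at 37° C; supernatant cytokine measured by MSD electrochemiluminescence sandwich immunoassay. DMSO wells set maximum signal, BTK inhibitor RN486 (30 nM to 131 pM) set maximum inhibition.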

Assay [3] deals with IL6 secretion by OCI-LY3 ABC-DLBCL cells. The assay can be described thus: Human IL6 Mesoscale assay (OCI-LY3). The assay is classed as cell-based. Particulars: Homo sapiens, 24 h. The procedure, abridged:
as §1

pIC50: −log10 of the molar value.

full-length MALT1 protein (Strep-MALT1(1-824)-His), sequence (Q9UDY8 whole entry): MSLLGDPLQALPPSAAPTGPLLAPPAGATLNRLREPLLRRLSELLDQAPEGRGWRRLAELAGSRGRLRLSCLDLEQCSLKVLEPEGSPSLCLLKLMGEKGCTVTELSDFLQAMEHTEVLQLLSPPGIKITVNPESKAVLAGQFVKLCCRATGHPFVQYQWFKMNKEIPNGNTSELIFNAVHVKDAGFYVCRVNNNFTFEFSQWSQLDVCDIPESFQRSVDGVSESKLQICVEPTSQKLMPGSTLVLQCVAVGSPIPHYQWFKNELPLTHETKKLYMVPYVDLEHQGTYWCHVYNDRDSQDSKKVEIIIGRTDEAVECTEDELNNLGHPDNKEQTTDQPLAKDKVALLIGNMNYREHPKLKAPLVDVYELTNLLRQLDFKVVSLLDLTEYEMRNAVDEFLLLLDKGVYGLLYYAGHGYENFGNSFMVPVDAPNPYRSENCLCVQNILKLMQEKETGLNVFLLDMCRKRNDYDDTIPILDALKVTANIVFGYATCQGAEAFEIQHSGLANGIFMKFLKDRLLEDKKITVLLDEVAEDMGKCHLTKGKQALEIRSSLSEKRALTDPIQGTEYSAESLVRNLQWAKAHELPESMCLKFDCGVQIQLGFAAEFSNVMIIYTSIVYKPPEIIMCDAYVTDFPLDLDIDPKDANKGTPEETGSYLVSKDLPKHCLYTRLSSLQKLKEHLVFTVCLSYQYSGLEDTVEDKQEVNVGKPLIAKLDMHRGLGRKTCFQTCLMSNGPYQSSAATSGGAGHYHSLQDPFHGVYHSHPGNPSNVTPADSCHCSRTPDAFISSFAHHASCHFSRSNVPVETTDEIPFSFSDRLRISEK

In the case of `Nc1ncc(-n2ncc(C(=O)Nc3ccnc(C(F)(F)F)c3)c2C(F)(F)F)c2ccccc12` [Cpd 339, 1-(1-aminoisoquinolin-4-yl)-5-(trifluoromethyl)-N-(2-(trifluoromethyl)pyridin-4-yl)-1H-pyrazole-4-carboxamide], the pIC50 is 6.93 in assay [1], 7.06 in assay [2] and 6.97 in assay [3].
For the compound `N#Cc1cc(NC(=O)c2cnn(-c3cnc(N)c4ccccc34)c2C(F)(F)F)ccn1` [Cpd 340, 1-(1-aminoisoquinolin-4-yl)-N-(2-cyanopyridin-4-yl)-5-(trifluoromethyl)-1H-pyrazole-4-carboxamide], the values for the negative logarithm of the IC50 (pIC50) in assay [1], in assay [2] and in assay [3] were 6.68, 6.64 and 6.53, respectively.
Take `Cc1cnn(-c2nc(C)c(NC(=O)c3cnn(-c4cnc(N)c5ccccc45)c3C(F)(F)F)cc2Cl)n1` [Cpd 341, 1-(1-aminoisoquinolin-4-yl)-N-(5-chloro-2-methyl-6-(4-methyl-2H-1,2,3-triazol-2-yl)pyridin-3-yl)-5-(trifluoromethyl)-1H-pyrazole-4-carboxamide]: the negative-log IC50 (pIC50) was 7.60 in assay [1], 6.41 in assay [2] and 6.32 in assay [3].
Take `Nc1ncc(-n2ncc(C(=O)Nc3cncc(C(F)(F)F)c3)c2C(F)(F)F)c2ccccc12` [Cpd 342, 1-(1-aminoisoquinolin-4-yl)-5-(trifluoromethyl)-N-(5-(trifluoromethyl)pyridin-3-yl)-1H-pyrazole-4-carboxamide]: the figures for the pIC50 in assay [1], in assay [2] and in assay [3] were 6.94, 6.88 and 6.79, respectively.
In the case of `Cc1nc(-n2nccn2)c(Br)cc1NC(=O)c1cnn(-c2cnc(N)c3ccccc23)c1C(F)(F)F` [Cpd 343, 1-(1-aminoisoquinolin-4-yl)-N-(5-bromo-2-methyl-6-(2H-1,2,3-triazol-2-yl)pyridin-3-yl)-5-(trifluoromethyl)-1H-pyrazole-4-carboxamide], the pIC50 in assay [1] is 7.70; in assay [2], 7.43; in assay [3], 7.16.
As for `O=C(Nc1cnc(-n2nccn2)c(Cl)c1)c1cnn(-c2cccc3[nH]c(=O)ccc23)c1C(F)(F)F` [Cpd 344, N-(5-chloro-6-(2H-1,2,3-triazol-2-yl)pyridin-3-yl)-1-(2-oxo-1,2-dihydroquinolin-5-yl)-5-(trifluoromethyl)-1H-pyrazole-4-carboxamide], the negative-log IC50 (pIC50) in assay [1] was 5.91; in assay [2], 7.28; in assay [3] it was 7.28.
On to `COc1ncc(NC(=O)c2cnn(-c3cccc4c(=O)[nH]ccc34)c2C(F)(F)F)cc1Cl` [Cpd 345, N-(5-chloro-6-methoxypyridin-3-yl)-1-(1-oxo-1,2-dihydroisoquinolin-5-yl)-5-(trifluoromethyl)-1H-pyrazole-4-carboxamide], for which the pIC50 is 7.03 in assay [1], 7.24 in assay [2] and 7.10 in assay [3].
With `N#Cc1cncc(NC(=O)c2cnn(-c3cccc4c(=O)[nH]ccc34)c2C(F)(F)F)c1` [Cpd 346, N-(5-cyanopyridin-3-yl)-1-(1-oxo-1,2-dihydroisoquinolin-5-yl)-5-(trifluoromethyl)-1H-pyrazole-4-carboxamide], the figures for the negative-log IC50 (pIC50) in assay [1], in assay [2] and in assay [3] were 6.56, 6.65 and 6.34, respectively.
Regarding `Cc1cc(NC(=O)c2cnn(-c3cccc4c(=O)[nH]ccc34)c2C(F)(F)F)ccn1` [Cpd 347, N-(2-methylpyridin-4-yl)-1-(1-oxo-1,2-dihydroisoquinolin-5-yl)-5-(trifluoromethyl)-1H-pyrazole-4-carboxamide], the negative-log IC50 (pIC50) in assay [1] is 6.03; in assay [2], 7.51; in assay [3] it was 7.37.
Consider `Cc1ncc(NC(=O)c2cnn(-c3cccc4c(=O)[nH]ccc34)c2C(F)(F)F)cc1C(F)(F)F` [Cpd 348, N-(6-methyl-5-(trifluoromethyl)pyridin-3-yl)-1-(1-oxo-1,2-dihydroisoquinolin-5-yl)-5-(trifluoromethyl)-1H-pyrazole-4-carboxamide], for which the results for the pIC50 in assay [1], in assay [2] and in assay [3] were 6.71, 7.17 and 7.00, respectively.
As for `O=C(Nc1ccncc1)c1cnn(-c2cccc3c(=O)[nH]ccc23)c1C(F)(F)F` [Cpd 349, 1-(1-oxo-1,2-dihydroisoquinolin-5-yl)-N-(pyridin-4-yl)-5-(trifluoromethyl)-1H-pyrazole-4-carboxamide], the negative-log IC50 (pIC50) was 4.87 in assay [1], 7.22 in assay [2] and 7.10 in assay [3].
With `O=C(Nc1ccnc(C2CC2)c1)c1cnn(-c2cccc3c(=O)[nH]ccc23)c1C(F)(F)F` [Cpd 350, N-(2-cyclopropylpyridin-4-yl)-1-(1-oxo-1,2-dihydroisoquinolin-5-yl)-5-(trifluoromethyl)-1H-pyrazole-4-carboxamide], the negative-log IC50 (pIC50) in assay [1] is 5.90; in assay [2], 6.74; in assay [3], 6.69.
For `CN(C)C(=O)c1ncc(NC(=O)c2cnn(-c3cccc4c(=O)[nH]ccc34)c2C(F)(F)F)cc1Cl` [Cpd 351, 3-chloro-N,N-dimethyl-5-(1-(1-oxo-1,2-dihydroisoquinolin-5-yl)-5-(trifluoromethyl)-1H-pyrazole-4-carboxamido)picolinamide], the pIC50 in assay [1] was 7.17; in assay [2], 7.34; in assay [3] it was 7.11.
As for `CNC(=O)c1ncc(NC(=O)c2cnn(-c3cccc4c(=O)[nH]ccc34)c2C(F)(F)F)cc1Cl` [Cpd 352, 3-chloro-N-methyl-5-(1-(1-oxo-1,2-dihydroisoquinolin-5-yl)-5-(trifluoromethyl)-1H-pyrazole-4-carboxamido)picolinamide], the results for the pIC50 in assay [1], in assay [2] and in assay [3] were 7.36, 7.06 and 6.89, respectively.
On the same counts, the results for `O=C(Nc1cncc(Cl)c1)c1cnn(-c2cccc3c(=O)[nH]ccc23)c1C(F)(F)F` [Cpd 353, N-(5-chloropyridin-3-yl)-1-(1-oxo-1,2-dihydroisoquinolin-5-yl)-5-(trifluoromethyl)-1H-pyrazole-4-carboxamide] are 6.94, 6.27 and 6.16.
On the same counts, the results for `N#Cc1ncc(NC(=O)c2cnn(-c3cccc4c(=O)[nH]ccc34)c2C(F)(F)F)cc1C(F)(F)F` [Cpd 354, N-(6-cyano-5-(trifluoromethyl)pyridin-3-yl)-1-(1-oxo-1,2-dihydroisoquinolin-5-yl)-5-(trifluoromethyl)-1H-pyrazole-4-carboxamide] are 7.28, 6.36 and 6.34.
Regarding `COC(=O)c1ncc(NC(=O)c2cnn(-c3cccc4c(=O)[nH]ccc34)c2C(F)(F)F)cc1Cl` [Cpd 355, methyl 3-chloro-5-(1-(1-oxo-1,2-dihydroisoquinolin-5-yl)-5-(trifluoromethyl)-1H-pyrazole-4-carboxamido)picolinate], the negative-log IC50 (pIC50) in assay [1] is 8.00; in assay [2], 6.39; in assay [3], 6.04.
Take `N#Cc1cc(NC(=O)c2cnn(-c3cccc4c(=O)[nH]ccc34)c2C(F)(F)F)ccn1` [Cpd 356, N-(2-cyanopyridin-4-yl)-1-(1-oxo-1,2-dihydroisoquinolin-5-yl)-5-(trifluoromethyl)-1H-pyrazole-4-carboxamide]: the pIC50 is 6.91 in assay [1], 6.68 in assay [2] and 6.53 in assay [3].
On to `COCCOc1ncc(C(F)(F)F)cc1NC(=O)c1cnn(-c2cccc3c(=O)[nH]ccc23)c1C(F)(F)F` [Cpd 357, N-(2-(2-methoxyethoxy)-5-(trifluoromethyl)pyridin-3-yl)-1-(1-oxo-1,2-dihydroisoquinolin-5-yl)-5-(trifluoromethyl)-1H-pyrazole-4-carboxamide], for which the negative logarithm of the IC50 (pIC50) was 6.01 in assay [1], 7.82 in assay [2] and 7.82 in assay [3].
For `Cc1nc(-n2nccn2)c(Cl)cc1NC(=O)c1cnn(-c2cc(=O)[nH]c3ccccc23)c1C(F)(F)F` [Cpd 358, N-(5-chloro-2-methyl-6-(2H-1,2,3-triazol-2-yl)pyridin-3-yl)-1-(2-oxo-1,2-dihydroquinolin-4-yl)-5-(trifluoromethyl)-1H-pyrazole-4-carboxamide], the results for the pIC50 in assay [1], in assay [2] and in assay [3] were 7.72, 6.90 and 6.91, respectively.
Taken in the same sequence, the figures for `Cc1cnn(-c2nc(C)c(NC(=O)c3cnn(-c4cccc5c(=O)[nH]ccc45)c3C(F)(F)F)cc2Cl)n1` [Cpd 359, N-(5-chloro-2-methyl-6-(4-methyl-2H-1,2,3-triazol-2-yl)pyridin-3-yl)-1-(1-oxo-1,2-dihydroisoquinolin-5-yl)-5-(trifluoromethyl)-1H-pyrazole-4-carboxamide] were 7.55, 7.04 and 7.01.
Taken in the same sequence, the figures for `COc1cc(NC(=O)c2cnn(-c3cccc4c(=O)[nH]ccc34)c2C(F)(F)F)ccn1` [Cpd 360, N-(2-methoxypyridin-4-yl)-1-(1-oxo-1,2-dihydroisoquinolin-5-yl)-5-(trifluoromethyl)-1H-pyrazole-4-carboxamide] were 5.57, 7.70 and 7.70.
As for `O=C(Nc1ccnc(C(F)(F)F)c1)c1cnn(-c2cncc3sccc23)c1C(F)(F)F` [Cpd 364, 1-(thieno[2,3-c]pyridin-4-yl)-5-(trifluoromethyl)-N-(2-(trifluoromethyl)pyridin-4-yl)-1H-pyrazole-4-carboxamide], the negative-log IC50 (pIC50) in assay [1] was 7.01; in assay [2] it was 7.51; in assay [3], 7.55.

A word on the pIC50: it is the negative decadic logarithm of the IC50, by convention in mol/L.
